Laboratory results: ChEMBL document CHEMBL4334495, “Design and Biological Evaluation of m-Xylene Thioether-Stapled Short Helical Peptides Targeting the HIV-1 gp41 Hexameric Coiled-Coil Fusion Complex” (J Med Chem, 2019)
Starred links: 1 amine or outer side, 2 acyl side, 3 side chain; linkers in the order of their positions; H or OH if unused. Positions of bridges follow the written chain, without caps; N, C: chain ends. Non-standard residues stand in square brackets, D forms with d. Residues, ends and D or L forms follow the SMILES beside them. ξ: configuration not given here. mXylylene = c1cc(C[*:1])cc(C[*:2])c1; ξhCys = NC(CCS)C(=O)O

Experiments:
[1] = test system: Human immunodeficiency virus 1; assay: Synergistic antiviral activity against X4 tropic HIV-1 subtype-B 3B infected in human MT2 cells or CEMx174 5.25 M7 cells assessed as reduction in p24 Gag protein production by measuring combination index at 12:1 compound to HP23 ratio measured at 4 days post-infection by ELISA; type: functional, HIV-1 group M
[2] = test system: Human immunodeficiency virus 1; assay: Synergistic antiviral activity against R5 tropic HIV-1 subtype-B Bal infected in human MT2 cells or CEMx174 5.25 M7 cells assessed as reduction in p24 Gag protein production by measuring combination index at 6:1 ratio of hCS6ERE to compound measured at 4 days post-infection by ELISA; type: functional, HIV-1 group M
[3] = test system: Human immunodeficiency virus 1; assay: Antiviral activity against R5 tropic HIV-1 subtype-B Bal infected in human MT2 cells or CEMx174 5.25 M7 cells assessed as reduction in p24 Gag protein production at 6:1 ratio of compound to HP23 measured at 4 days post-infection by ELISA; type: functional, cell-based, HIV-1 group M; conditions: Human immunodeficiency virus 1, Bal, 96 h
[4] = test system: Human immunodeficiency virus 1; assay: Antiviral activity against R5 tropic HIV-1 subtype-B Bal infected in human MT2 cells or CEMx174 5.25 M7 cells assessed as reduction in p24 Gag protein production at 12:1 ratio of compound to HP23 measured at 4 days post-infection by ELISA; type: functional, cell-based, HIV-1 group M; conditions: Human immunodeficiency virus 1, Bal, 96 h
[5] = test system: Human immunodeficiency virus 1; assay: Ratio of EC50 for antiviral activity against R5 tropic HIV-1 subtype-B Bal infected in human MT2 cells or CEMx174 5.25 M7 cells in absence of HP23 to EC50 for antiviral activity against R5 tropic HIV-1 subtype-B Bal infected in human MT2 cells or CEMx174 5.25 M7 cells at 6:1 compound to HP23 ratio; type: functional, HIV-1 group M
[6] = test system: Human immunodeficiency virus 1; assay: (§1) Synergistic antiviral activity against HIV1 NL4-3 infected in human MT2 cells or CEMx174 5.25 M7 cells assessed as reduction in p24 Gag protein production by measuring combination index at 20:1 compound to HP23 ratio measured at 4 days post-infection by ELISA; type: functional
[7] = test system: Human immunodeficiency virus 1; assay: Antiviral activity against HIV1 NL4-3 infected in human MT2 cells or CEMx174 5.25 M7 cells assessed as reduction in p24 Gag protein production at 5:1 compound to HP23 ratio measured at 4 days post-infection by ELISA; type: functional, organism-based; conditions: Human immunodeficiency virus 1, NL4-3, 96 h
[8] = test system: Human immunodeficiency virus 1; assay: Antiviral activity against HIV1 NL4-3 infected in human MT2 cells or CEMx174 5.25 M7 cells assessed as reduction in p24 Gag protein production at 20:1 compound to HP23 ratio measured at 4 days post-infection by ELISA; type: functional, organism-based; conditions: Human immunodeficiency virus 1, NL4-3, 96 h
[9] = test system: Human immunodeficiency virus 1; assay: as §1, with “against T20 resistant” for “against”, “NL4-3 harboring with V38E/N42S mutant” for “NL4-3”, “3500:1” for “20:1”; type: functional
[10] = test system: Human immunodeficiency virus 1; assay: as §1, with “against T20 resistant” for “against”, “NL4-3 harboring with V38E/N42T mutant” for “NL4-3”, “600:1” for “20:1”; type: functional
[11] = test system: Human immunodeficiency virus 1; assay: (§2) Ratio of EC50 for antiviral activity against T20 resistant HIV1 NL4-3 harboring with V38E/N42T mutant infected in human MT2 cells or CEMx174 5.25 M7 cells in absence of HP23 to EC50 for Antiviral activity against T20 resistant HIV1 NL4-3 harboring with V38E/N42T mutant infected in human MT2 cells or CEMx174 5.25 M7 cells at 150:1 compound to HP23 ratio; type: functional
[12] = test system: Human immunodeficiency virus 1; assay: as §2, with “300:1” for “150:1”; type: functional
[13] = test system: Human immunodeficiency virus 1; assay: Synergistic antiviral activity against T2635 resistant HIV1 LAI harboring Q66R mutant infected in human MT2 cells or CEMx174 5.25 M7 cells assessed as reduction in p24 Gag protein production by measuring combination index at 50:1 compound ratio measured at 4 days post infection by ELISA; type: functional, M:B_Lai
[14] = test system: Human immunodeficiency virus 1; assay: Antiviral activity against T2635 resistant HIV1 LAI harboring Q66R mutant infected in human MT2 cells or CEMx174 5.25 M7 cells assessed as reduction in p24 Gag protein production at 50:1 ratio of compound to HP23 measured at 4 days post infection by ELISA; type: functional, organism-based, M:B_Lai
[15] = Metabolic stability of the compound assessed as Proteinase K (unknown origin)-mediated compound hydrolysis by measuring parent compound remaining at 3 to 100 uM after 4 hrs by RP-HPLC analysis; type: ADME; conditions: human, read-out: Stability
[16] = Metabolic stability in rat kidney homogenates assessed as parent compound remaining at 3 to 100 uM after 4 hrs by RP-HPLC analysis; type: ADME, tissue-based; conditions: read-out: Stability
[17] = test system: Human immunodeficiency virus 1; assay: Antiviral activity against X4 tropic HIV-1 subtype-B 3B infected in human MT2 cells or CEMx174 5.25 M7 cells assessed as reduction in p24 Gag protein production at 24:1 ratio of hCS6ERE to compound measured at 4 days post-infection by ELISA; type: functional, cell-based, HIV-1 group M; conditions: Human immunodeficiency virus 1, 3B, 96 h
[18] = test system: Human immunodeficiency virus 1; assay: Antiviral activity against R5 tropic HIV-1 subtype-B Bal infected in human MT2 cells or CEMx174 5.25 M7 cells assessed as reduction in p24 Gag protein production at 3:1 ratio of hCS6ERE to compound measured at 4 days post-infection by ELISA; type: functional, cell-based, HIV-1 group M; conditions: Human immunodeficiency virus 1, Bal, 96 h
[19] = test system: Human immunodeficiency virus 1; assay: Antiviral activity against R5 tropic HIV-1 subtype-B Bal infected in human MT2 cells or CEMx174 5.25 M7 cells assessed as reduction in p24 Gag protein production at 6:1 ratio of hCS6ERE to compound measured at 4 days post-infection by ELISA; type: functional, cell-based, HIV-1 group M; conditions: Human immunodeficiency virus 1, Bal, 96 h
[20] = test system: Human immunodeficiency virus 1; assay: Antiviral activity against R5 tropic HIV-1 subtype-B Bal infected in human MT2 cells or CEMx174 5.25 M7 cells assessed as reduction in p24 Gag protein production at 12:1 ratio of hCS6ERE to compound measured at 4 days post-infection by ELISA; type: functional, cell-based, HIV-1 group M; conditions: Human immunodeficiency virus 1, Bal, 96 h
[21] = test system: Human immunodeficiency virus 1; assay: as §2, with “V38E/N42S” for “V38E/N42T”, “hCS6ERE” for “HP23”, “antiviral” for “Antiviral”, “7000:1 hCS6ERE to” for “150:1”, “compound” for “compound to HP23”; type: functional
[22] = test system: Human immunodeficiency virus 1; assay: as §2, with “hCS6ERE” for “HP23”, “150:1 hCS6ERE to” for “150:1”, “compound” for “compound to HP23”; type: functional
[23] = test system: Human immunodeficiency virus 1; assay: Antiviral activity against T2635 resistant HIV1 LAI harboring Q66R mutant infected in human MT2 cells or CEMx174 5.25 M7 cells assessed as reduction in p24 Gag protein production at 50:1 ratio of hCS6ERE to compound measured at 4 days post infection by ELISA; type: functional, organism-based, M:B_Lai

Q: Which CI [1] does the source give for `CC[C@H](C)[C@H](NC(C)=O)C(=O)N[C@@H](CCC(=O)O)C(=O)N[C@@H](CCC(=O)O)C(=O)N[C@@H](CC(C)C)C(=O)N[C@H](C(=O)NC1CCSCc2cccc(c2)CSCCC(C(=O)N[C@@H](CCC(N)=O)C(=O)N[C@@H](CCC(N)=O)C(=O)N[C@@H](CCCNC(=N)N)C(=O)N[C@@H](CCCCN)C(=O)N[C@@H](CC(N)=O)C(=O)N[C@@H](CCC(=O)O)C(=O)N[C@@H](CCC(=O)O)C(=O)N[C@@H](C)C(=O)N[C@@H](CC(C)C)C(=O)N[C@@H](CCCNC(=N)N)C(=O)N[C@@H](CCC(=O)O)C(=O)N[C@@H](CC(C)C)C(N)=O)NC(=O)[C@H](CCC(N)=O)NC(=O)[C@H](C)NC(=O)[C@H](C)NC1=O)[C@@H](C)CC` (stereo partly drawn) (Ac-IEELI[ξhCys]AAQ[ξhCys]QQRKNEEALREL-NH2; linker 6-10 via mXylylene) here?
A: The CI was 0.7.

Q: What about the CI [2] of the same compound?
A: The CI was 0.8.

Q: And the EC50 [3]?
A: The EC50 was 6 nM.

Q: And the EC50 [4]?
A: The EC50 was 6 nM.

Q: What about the “Ratio EC50” value [5] of the same compound?
A: The value was 3.8.

Q: What about the CI [6] of the same compound?
A: The CI was 0.8.

Q: What about the EC50 [7] of the same compound?
A: The EC50 was 4.4 nM.

Q: What about the EC50 [8] of the same compound?
A: Its EC50 is 14 nM.

Q: What about the CI [9] of the same compound?
A: Its CI is 0.7.

Q: And the CI [10]?
A: Its CI is 0.7.

Q: And the “Ratio EC50” value [11]?
A: The value was 3.1.

Q: And the “Ratio EC50” value [12]?
A: Its value is 2.3.

Q: And the CI [13]?
A: The CI was 0.4.

Q: What about the EC50 [14] of the same compound?
A: Its EC50 is 26.3 nM.

Q: And the remaining at 4 h, up to 100 µM [15]?
A: The remaining at 4 h, up to 100 µM was 100%.

Q: And the remaining at 4 h [16]?
A: Its remaining at 4 h is 15.8%.

Q: With H-EMTWEEWEKKIEEYTKKIEEILK-OH as the compound, how does the EC50 [17] read?
A: Its EC50 is 0.7 nM.

Q: What about the EC50 [18] of the same compound?
A: The EC50 was 1.4 nM.

Q: What about the EC50 [19] of the same compound?
A: Its EC50 is 1 nM.

Q: And the EC50 [20]?
A: Its EC50 is 0.5 nM.

Q: What about the “Ratio EC50” value [21] of the same compound?
A: Its value is 3.5.

Q: What about the “Ratio EC50” value [22] of the same compound?
A: Its value is 1.9.

Q: And the EC50 [23]?
A: The EC50 was 0.5 nM.
